The values below come from patent publication US20100197604A1, “USE OF PEPTIDE AS A THERAPEUTIC AGENT” (priority 2007, published 2010).

For the assay, the system named is drug-resistant Mycobacterium tuberculosis. Particulars: drug-resistant Mycobacterium tuberculosis growth; peptide 10 micrograms per ml; seven days.

A word on the % inhibition: it is the percentage by which the read-out fell short of the control. A high value points to a strong effect. On to `CC[C@H](C)[C@H](NC(=O)[C@H](Cc1ccc(O)cc1)NC(=O)[C@@H](NC(=O)[C@H](CCCNC(=N)N)NC(=O)[C@@H](N)CC(=O)O)C(C)C)C(=O)N[C@@H](Cc1c[nH]cn1)C(=O)N1CCC[C@H]1C(=O)N[C@@H](Cc1ccccc1)C(=O)O` [Angiotensin II], for which the “% inhibition” value came out at 0.0%.
